Experimental data from patent US10377741B2, “Substituted heteroaryl aldehyde compounds and methods for their use in increasing tissue oxygenation” (Global Blood Therapeutics, Inc., priority 2011, dated 2019).

Biological target: T1, purified Hemoglobin S (HbS) (Homo sapiens, UniProt P68871+P69905, E7V)
T1 construct: HbS was purified by a modified procedure; from tissue; host or cells: blood of homozygous sickle cell patients (CHORI); for the polymerization assay purified by the CRO VIRUSYS
Experiment: Modulation of hemoglobin oxygen affinity: oxygen equilibrium curves (HEMOX) in purified HbS
Assay type: biochemical, human (homozygous sickle cell patients)
Conditions: compound at 30 μM; 25 μM purified HbS, 45 min at 37° C.
Protocol: Oxygen equilibrium curves (OEC) in purified Hemoglobin S (HbS) were measured by the change in p50, the partial pressure of oxygen at which the heme binding sites in the HbS sample are 50% saturated with oxygen. HbS was purified by a modified procedure (Antonini and Brunori, 1971; Heomoglobin and Myoglobin in their Reactions with Ligands; North Holland Publishing Company; Amsterdam, London) from blood obtained from homozygous sickle cell patients though the Hemoglobinopathy Center at Children's Hospital Oakland Research Institute (CHORI) with Institutional Review Board approval. Oxygen equilibrium curves were carried out with a HEMOX analyzer, (TCS Scientific, New Hope, Pa.). Five hundred μL of 250 μM purified HbS were diluted into 4.5 mL of HEMOX buffer (30 mM TES, 130 mM NaCl, 5 mM KCl, pH=7.4) resulting in a final hemoglobin concentration of 25 μM. The compounds were added at the final desired concentrations. The mixture was incubated for 45 min at 37° C. and then transferred to the Hemox sample chamber. The samples were saturated with oxygen by flushing with compressed air for 10 minutes. The samples were then flushed with pure nitrogen and the absorbance of deoxy-Hb was recorded as a function of the solution pO2. The oxygen equilibrium data was then fit to the Hill Model to obtain values for p50. The deoxygenation curves for both HbS alone (control) and HbS in the presence of compound were collected with the TCS software. The p50 for purified Hbs was typically 13.8±1.6. Delta p50 values were obtained from the p50 value for control minus the p50 value for HbS treated with compound divided by the p50 value for the control.
The compounds of Table 1 that were where tested in the assay above were all found to have positive delta p50 values. Delta p50% is calculated from [[p50(HbS) −p50(HbS treated with compound)]/p50(HbS)]×100. Table 2 below lists the delta p50% values where + indicates a delta p50% of between 0 and 29, ++ indicates a delta p50% of between 30 and 50, and +++ indicates a delta p50% of 50 or greater. Unless noted otherwise, the compounds in Table 2 were tested at 30 μM.

Structure (SMILES)	delta p50%
COC(=O)c1cncc(COc2cnc(OC)cc2C=O)c1 [Compound 78, methyl 5-((4-formyl-6-methoxypyridin-3-yloxy)methyl)nicotinate]	+ (a delta p50% of between 0 and 29)
Cc1ccc(OCc2cnc3ccccc3c2)c(C=O)n1 [Compound 81, 6-methyl-3-(quinolin-3-ylmethoxy)picolinaldehyde]	+ (a delta p50% of between 0 and 29)
COc1cc(C=O)c(OCc2ccc3ccncc3c2)cn1 [Compound 82, 5-(isoquinolin-7-ylmethoxy)-2-methoxyisonicotinaldehyde]	+ (a delta p50% of between 0 and 29)
Cc1ccc(OCc2ccc3ccncc3c2)c(C=O)n1 [Compound 83, 3-(isoquinolin-7-ylmethoxy)-6-methylpicolinaldehyde]	+ (a delta p50% of between 0 and 29)
Cc1ccc(OCc2cccc3c2cnn3C)c(C=O)n1 [Compound 85, 6-methyl-3-((1-methyl-1H-indazol-4-yl)methoxy)picolinaldehyde]	+ (a delta p50% of between 0 and 29)
COc1cc(C=O)c(OCc2cccc3[nH]ncc23)cn1 [Compound 87, 5-((1H-indazol-4-yl)methoxy)-2-methoxyisonicotinaldehyde]	+ (a delta p50% of between 0 and 29)
Cc1ccc(OCc2cccc3[nH]ncc23)c(C=O)n1 [Compound 88, 3-((1H-indazol-4-yl)methoxy)-6-methylpicolinaldehyde]	+ (a delta p50% of between 0 and 29)
COc1ccc(OCc2ccc3cnn(C)c3c2)c(C=O)n1 [Compound 89, 6-methoxy-3-((1-methyl-1H-indazol-6-yl)methoxy)picolinaldehyde]	+ (a delta p50% of between 0 and 29)
COc1cc(C=O)c(OCc2cccc3cnn(C)c23)cn1 [Compound 90, 2-methoxy-5-((1-methyl-1H-indazol-7-yl)methoxy)isonicotinaldehyde]	+ (a delta p50% of between 0 and 29)
Cc1ccc(OCc2ccc3ccccc3n2)c(C=O)n1 [Compound 94, 6-methyl-3-(quinolin-2-ylmethoxy)picolinaldehyde]	+ (a delta p50% of between 0 and 29)
COc1cc(C=O)c(OCc2cnccc2-c2cn[nH]c2)cn1 [Compound 95, 5-((4-(1H-pyrazol-4-yl)pyridin-3-yl)methoxy)-2-methoxyisonicotinaldehyde]	+ (a delta p50% of between 0 and 29)
COc1cc(C=O)c(OCc2cc(Br)cn3ccnc23)cn1 [Compound 96, 5-((6-bromoimidazo[1,2-a]pyridin-8-yl)methoxy)-2-methoxyisonicotinaldehyde]	+ (a delta p50% of between 0 and 29)
COc1cc(C=O)c(OCc2cc(C#N)cn3ccnc23)cn1 [Compound 97, 8-((4-formyl-6-methoxypyridin-3-yloxy)methyl)imidazo[1,2-a]pyridine-6-carbonitrile]	+ (a delta p50% of between 0 and 29)
COc1cc(C=O)c(OCc2cncc(C#N)c2)cn1 [Compound 98, 5-((4-formyl-6-methoxypyridin-3-yloxy)methyl)nicotinonitrile]	+ (a delta p50% of between 0 and 29)
Cc1ccc(OCc2cccc3ocnc23)c(C=O)n1 [Compound 99, 3-(benzo[d]oxazol-4-ylmethoxy)-6-methylpicolinaldehyde]	+ (a delta p50% of between 0 and 29)
COc1cc(C=O)c(OCc2cc(C(N)=O)cn3ccnc23)cn1 [Compound 100, 8-((4-formyl-6-methoxypyridin-3-yloxy)methyl)imidazo[1,2-a]pyridine-6-carboxamide]	+ (a delta p50% of between 0 and 29)
COc1cc(C=O)c(OCc2cncc(C(N)=O)c2)cn1 [Compound 101, 5-((4-formyl-6-methoxypyridin-3-yloxy)methyl)nicotinamide]	+ (a delta p50% of between 0 and 29)
COc1cc(C=O)c(OCc2cc(-c3cn[nH]c3)cn3ccnc23)cn1 [Compound 102, 5-((6-(1H-pyrazol-4-yl)imidazo[1,2-a]pyridin-8-yl)methoxy)-2-methoxyisonicotinaldehyde]	+ (a delta p50% of between 0 and 29)

Structure (SMILES)	delta p50%
COc1cc(C=O)c(OCc2cc(-c3ccn[nH]3)cn3ccnc23)cn1 [Compound 104, 5-((6-(1H-pyrazol-5-yl)imidazo[1,2-a]pyridin-8-yl)methoxy)-2-methoxyisonicotinaldehyde]	+ (a delta p50% of between 0 and 29)
COc1cc(C=O)c(OCc2ccnc3cccnc23)cn1 [Compound 105, 5-((1,5-naphthyridin-4-yl)methoxy)-2-methoxyisonicotinaldehyde]	+ (a delta p50% of between 0 and 29)
COc1cc(C=O)c(OCc2ccc3[nH]ncc3c2)cn1 [Compound 107, 5-((1H-indazol-5-yl)methoxy)-2-methoxyisonicotinaldehyde]	+ (a delta p50% of between 0 and 29)
Cc1ccc(OCc2ccc3c(c2)c(Cl)nn3C)c(C=O)n1 [Compound 109, 3-((3-chloro-1-methyl-1H-indazol-5-yl)methoxy)-6-methylpicolinaldehyde]	+ (a delta p50% of between 0 and 29)
COc1cc(C=O)c(OCc2ccc3c(cnn3C)c2)cn1 [Compound 110, 2-methoxy-5-((1-methyl-1H-indazol-5-yl)methoxy)isonicotinaldehyde]	+ (a delta p50% of between 0 and 29)
COc1cc(C=O)c(OCc2ccc3c(c2)c(Cl)nn3C)cn1 [Compound 111]	+ (a delta p50% of between 0 and 29)
COc1cc(C=O)c(NC(=O)c2cccn3ccnc23)cn1 [Compound 112, N-(4-formyl-6-methoxypyridin-3-yl)imidazo[1,2-a]pyridine-8-carboxamide]	+ (a delta p50% of between 0 and 29)
Cc1ccc(OCc2ccnc3c2c(C)nn3C)c(C=O)n1 [Compound 113, 3-((1,3-dimethyl-1H-pyrazolo[3,4-b]pyridin-4-yl)methoxy)-6-methylpicolinaldehyde]	+ (a delta p50% of between 0 and 29)
COc1cc(C=O)c(OCc2ccnc3c2c(C)nn3C)cn1 [Compound 114, 5-((1,3-dimethyl-1H-pyrazolo[3,4-b]pyridin-4-yl)methoxy)-2-methoxyisonicotinaldehyde]	+ (a delta p50% of between 0 and 29)
COc1cc(C=O)c(OCc2cc3ccccc3nc2Cl)cn1 [Compound 116, 5-((2-chloroquinolin-3-yl)methoxy)-2-methoxyisonicotinaldehyde]	+ (a delta p50% of between 0 and 29)
COc1cc(C=O)c(OCc2cc3ccccc3nc2-c2ccn[nH]2)cn1 [Compound 117]	+ (a delta p50% of between 0 and 29)
COc1cc(C=O)c(OCc2cnc3ccccc3n2)cn1 [Compound 118, 2-methoxy-5-(quinoxalin-2-ylmethoxy)isonicotinaldehyde]	+ (a delta p50% of between 0 and 29)
Cc1ccc(OCc2cnc3c(cnn3C)c2)c(C=O)n1 [Compound 121, 6-methyl-3-((1-methyl-1H-pyrazolo[3,4-b]pyridin-5-yl)methoxy)picolinaldehyde]	+ (a delta p50% of between 0 and 29)
COc1cc(C=O)c(OCc2cnc3c(cnn3C)c2)cn1 [Compound 122, 2-methoxy-5-((1-methyl-1H-pyrazolo[3,4-b]pyridin-5-yl)methoxy)isonicotinaldehyde]	+ (a delta p50% of between 0 and 29)
COc1cc(C=O)c(OCc2c(-c3cc[nH]n3)ccn3cncc23)cn1 [Compound 123, 5-((7-(1H-pyrazol-3-yl)imidazo[1,5-a]pyridin-8-yl)methoxy)-2-methoxyisonicotinaldehyde]	+ (a delta p50% of between 0 and 29)
COc1cc(C=O)c(OCc2cncc(-c3nn[nH]n3)c2)cn1 [Compound 124, 5-((5-(2H-tetrazol-5-yl)pyridin-3-yl)methoxy)-2-methoxyisonicotinaldehyde]	+ (a delta p50% of between 0 and 29)
COc1cc(C=O)c(OCc2cc(-c3nn[nH]n3)cn3ccnc23)cn1 [Compound 125, 5-((6-(2H-tetrazol-5-yl)imidazo[1,2-a]pyridin-8-yl)methoxy)-2-methoxyisonicotinaldehyde]	+ (a delta p50% of between 0 and 29)
